From paper PMC9104356, “Characterisation of a Novel Acetyl Xylan Esterase (BaAXE) Screened from the Gut Microbiota of the Common Black Slug (Arion ater)” (Molecules, 2022)

System: T1, BaAXE (Gene_id_40363)
T1 construct: full-length 654 bp PCR product (about 218 residues), pDEST42, C-terminal 6xHis, E. coli BL21(DE3), 27 kDa by SDS-PAGE; forward primer CACCATGAAACATGACCAC encodes N-terminus MKHDH
Test: spectrophotometric 4-nitrophenol release at […] nm, nonlinear Michaelis-Menten fit
Type: biochemical
Settings: pH 8, 0.1-2 mM substrate; temperature not told for kinetics (standard assay 40 °C, 50 mM sodium phosphate, 150 mM NaCl, 0.01% Triton X-100)

- Km: 430 µM
SMILES: CC(=O)Oc1ccc([N+](=O)[O-])cc1 [4-NPA, 4-nitrophenyl acetate]
